Laboratory results reported in paper PMC6865065 (Journal of clinical oncology : official journal of the …, 2016).
Where “and” joins values, the source holds several entries; their conditions need not be identical. Equal entries are not always repeated. Entries after “also recorded” stand apart in the source; their conditions may differ. Where two headings read alike, the source gives them in different places.

Key:
serum phosphate levels = experiment: Pharmacodynamics: serum phosphate levels; assay type: in vivo, human; conditions: BGJ398 treatment; consistently at doses ≥ 100 mg
[1] = tested on: solid tumors harboring FGFR alterations; experiment: Antitumor activity, RECIST v1.0 tumor evaluations; assay type: in vivo, human
[2] = tested on: patients with advanced solid tumors harboring FGFR genetic alterations; experiment: Patient disposition and treatment exposure; assay type: in vivo
[3] = Pharmacokinetics: BGJ398 plasma concentrations; assay type: in vivo, human
FGFR4 = conditions: read-out: Half maximal inhibitory concentration; cited from earlier work
[4] = tested on: patients with advanced solid tumors harboring FGFR genetic alterations
[5] = on the basis of preclinical data ref 20; cited from earlier work
[6] = tested on: RT112 human tumor-derived FGFR gene fusion bladder cancer cell line; conditions: read-out: Half maximal inhibitory concentration; cited from earlier work
[7] = 36 patients with FGFR1-amplified sqNSCLC, ≥ 100 mg continuously
[8] = eight patients with FGFR3-mutated bladder/urothelial cancer, ≥ 100 mg

CCN1CCN(c2ccc(Nc3cc(N(C)C(=O)Nc4c(Cl)c(OC)cc(OC)c4Cl)ncn3)cc2)CC1 [BGJ398, 3-(2,6-dichloro-3,5-dimethoxy-phenyl)-1-{6-[4-(4-ethyl-piperazin-1-yl)-phenylamino]-pyrimidin-4-yl}−1-methyl-urea]
Serum phosphate levels (serum phosphate levels): increased serum phosphate levels; also recorded: Elevated serum phosphate levels
Patients continuing to receive treatment for > 8 weeks ([1]; 31 sqNSCLC patients treated at 125 mg continuously): 12
Disease control rate (DCR: PR + SD) [1, 7]: 50%
Patients achieving PRs (overall response rate) [1, 7]: 11.1% and 11%
Patients with SD [1, 7]: 14 patients
Patients with reduced tumor burden ([1]; 85 patients treated at ≥ 100 mg with evaluable data (28 patients)): 32.9%
Time responder remained on study ([1]; FGFR1-amplified sqNSCLC, unconfirmed PR): 26.3 weeks
Patients with best overall response of SD ([1]; all patients, N = 132): 42
Tumor burden change ([1]; all three patients with FGFR2-altered cholangiocarcinoma with pre- and post-treatment assessments): reduced tumor burden
Patients with best response of SD ([1]; breast cancer, ≥ 100 mg, 10 of 32 patients): 31%
Partial responses ([1]; doses ≥ 100 mg, FGFR1-amplified sqNSCLC and FGFR3-mutant bladder/urothelial cancer, six confirmed): seven
Disease control rate (DCR) [1, 8]: 75%
Patients achieving PRs (overall response rate) [1, 8]: 37.5% and 38%
Patients with reduced tumor burden [1, 8]: 62.5%
Patients with disease control ([1]; of 132 patients across all doses): 49
Discontinuation because of death ([2]; N = 132): 3.8%
Discontinuation because of disease progression ([2]; N = 132): 67.4%
Discontinuation because of AEs ([2]; human, in vivo): 12.9%
Increase of mean AUC from 0 to 24 hours on day 1 ([3]; from 20 to 150 mg once daily): approximately nine
Tmax ([3]; human, plasma, oral, Median time to reach maximum plasma concentration, after a single dose): 2 to 3 h
Dose-limiting toxicity observed ([4]; 100 mg, n = 1): grade 3 aminotransferase elevations; also recorded: grade 3 increases in ALT/AST
Dose-limiting toxicity observed ([4]; 150 mg, n = 1 each): grade 1 corneal toxicity; also recorded: grade 3 aminotransferase elevations; also recorded: grade 3 increases in ALT/AST
Reversibility of DLTs ([4]; after BGJ398 interruption and/or concomitant medication): reversible
Patients who died while receiving treatment or within 28 days of the last dose ([4]; all doses, N = 132): Fifteen
Patients experiencing DLTs ([4]; dose-determining set, four of 34 patients, cycle 1): 11.8%
AE leading to discontinuation, patients ([4]; human, in vivo): 13.6%
AE requiring dose adjustment or interruption, patients ([4]; human, in vivo): 59.1%
Asymptomatic hyperphosphatemia suspected to be treatment related, patients ([4]; human, in vivo): 72.7%
At least one AE suspected to be treatment related, patients ([4]; human, in vivo): 95.5%
Eye-related AE leading to discontinuation, patients ([4]; human, in vivo): 4.5%
Grade 3/4 AE suspected to be treatment related, patients ([4]; human, in vivo): 31.1%
Grade 3/4 TEAEs, patients ([4]; human, in vivo): 52.3%
Median time to first dose interruption ([4]; human, in vivo): 22 days
Treatment-emergent AEs (TEAEs), patients ([4]; human, in vivo): 99.2%
Treatment-related alopecia, patients ([4]; human, in vivo): 23.5%
Treatment-related decreased appetite, patients ([4]; human, in vivo): 28.8%
Treatment-related diarrhea, patients ([4]; human, in vivo): 27.3%
Treatment-related fatigue, patients ([4]; human, in vivo): 25.0%
Treatment-related nausea, patients ([4]; human, in vivo): 22.0%
Treatment-related stomatitis, patients ([4]; human, in vivo): 36.4%
Dose-limiting toxicity observed ([4]; in vivo): hyperphosphatemia
Deaths attributed to PD or to related AEs ([4]; of fifteen deaths): 11
Deaths suspected to be BGJ398 related ([4]; of fifteen deaths): One
Maximum tolerated dose (MTD) ([4]; oral, once daily): 125 mg
Recommended phase II dose (RP2D) ([4]; oral, once daily, 3-weeks-on/1-week-off schedule): 125 mg
IC50 [6]: 4 nM
